Where “and” joins values, the source holds several entries; their conditions need not be identical. Identical values can stand only once. Entries after “also recorded” stand apart in the source; their conditions may differ.
Test: X-ray powder diffraction of the powder (crystalline or amorphous morphology)
Format: physicochemical
Details: not given
Description: X-ray diffraction data were acquired using a PHILIPS X-ray diffractometer model PW1050-70 set at 40 kV, 28 mA, using 1.54178 Å (Kα), diversion slit of 1°, receiving slit of 0.2 mm, scattering slit of 1° and a graphite monochromator.
For CCC(=O)O[C@]1(C(=O)SCF)[C@H](C)C[C@H]2[C@@H]3C[C@H](F)C4=CC(=O)C=C[C@]4(C)[C@@]3(F)[C@@H](O)C[C@@]21C [Example 16, fluticasone propionate], the “Morphology by X-ray powder diffraction pattern” value was “low level of a crystalline morphology; also recorded: mostly amorphous morphology”. For CCC(=O)O[C@]1(C(=O)SCF)[C@H](C)C[C@H]2[C@@H]3C[C@H](F)C4=CC(=O)C=C[C@]4(C)[C@@]3(F)[C@@H](O)C[C@@]21C [Example 13, fluticasone propionate], the “Morphology by X-ray powder diffraction pattern” value was “crystalline morphology”.

Test: Observation of powder flow, agglomeration tendency and electrostatic charge
Format: physicochemical
Details: not given
In the case of CCC(=O)O[C@]1(C(=O)SCF)[C@H](C)C[C@H]2[C@@H]3C[C@H](F)C4=CC(=O)C=C[C@]4(C)[C@@]3(F)[C@@H](O)C[C@@]21C [Example 12, fluticasone propionate], the “Electrostatic charge of the powder” value is reported as “tended to accumulate a considerable amount of static charge; also recorded: tended to accumulate a considerable amount of electrostatic charge” and the Tendency to agglomerate is reported as “generally tended to agglomerate; also recorded: high tendency to agglomerate”. In the case of CCC(=O)O[C@]1(C(=O)SCF)[C@H](C)C[C@H]2[C@@H]3C[C@H](F)C4=CC(=O)C=C[C@]4(C)[C@@]3(F)[C@@H](O)C[C@@]21C [Example 14, fluticasone propionate], the “Powder characteristics (flow and morphology of the powder)” value is reported as “Free flowing crystalline powder” and the Tendency to agglomerate is reported as “did not exhibit a tendency to agglomerate; also recorded: that does not tend to agglomerate”. For CCC(=O)O[C@]1(C(=O)SCF)[C@H](C)C[C@H]2[C@@H]3C[C@H](F)C4=CC(=O)C=C[C@]4(C)[C@@]3(F)[C@@H](O)C[C@@]21C [Example 15, fluticasone propionate], the “Powder characteristics (flow and morphology of the powder)” value was “Free flowing crystalline powder” and the Tendency to agglomerate was “did not exhibit a tendency to agglomerate; also recorded: that does not tend to agglomerate”. With CCC(=O)O[C@]1(C(=O)SCF)[C@H](C)C[C@H]2[C@@H]3C[C@H](F)C4=CC(=O)C=C[C@]4(C)[C@@]3(F)[C@@H](O)C[C@@]21C [Example 16, fluticasone propionate] the “Powder characteristics (flow and morphology of the powder)” value was “Partially amorphous powder”. For CCC(=O)O[C@]1(C(=O)SCF)[C@H](C)C[C@H]2[C@@H]3C[C@H](F)C4=CC(=O)C=C[C@]4(C)[C@@]3(F)[C@@H](O)C[C@@]21C [Example 13, fluticasone propionate], the “Electrostatic charge of the powder” value was “did not exhibit any static electricity”, the “Powder characteristics (flow and morphology of the powder)” value was “Free flowing crystalline powder” and the Tendency to agglomerate was “did not exhibit a tendency to agglomerate; also recorded: did not exhibit any tendency to agglomerate; also recorded: that does not tend to agglomerate”.

Test: SEM micrograph of particle shape
Format: physicochemical
Details: not given
With CCC(=O)O[C@]1(C(=O)SCF)[C@H](C)C[C@H]2[C@@H]3C[C@H](F)C4=CC(=O)C=C[C@]4(C)[C@@]3(F)[C@@H](O)C[C@@]21C [Example 12, fluticasone propionate] the “Particle shape (SEM micrograph)” value was “irregular shape of the particles; also recorded: irregular jaggedly shaped particles”. For CCC(=O)O[C@]1(C(=O)SCF)[C@H](C)C[C@H]2[C@@H]3C[C@H](F)C4=CC(=O)C=C[C@]4(C)[C@@]3(F)[C@@H](O)C[C@@]21C [Example 13, fluticasone propionate], the “Particle shape (SEM micrograph)” value was “regular spherical shape and have smooth surface; also recorded: uniform spherical shape”.

Same assay, conditions: listed as Reference Example 12
For CCC(=O)O[C@]1(C(=O)SCF)[C@H](C)C[C@H]2[C@@H]3C[C@H](F)C4=CC(=O)C=C[C@]4(C)[C@@]3(F)[C@@H](O)C[C@@]21C [Example 12, fluticasone propionate], the “Particle shape (SEM micrograph)” value was “irregular jaggedly shape”.

Test: Particle size distribution by dynamic light scattering (Malvern Mastersizer 2000)
Format: physicochemical
Details: not given
Description: Particle size was measured on a dynamic light scattering device by Malvern model Mastersizer 2000, using a measuring range of 0.02-2000 μm, accuracy level of 1% at the median, helium neon laser as a red light source, and solid state light source as a blue light source. Particle size distributions are presented as the average particle size of specified percentiles, including the flanking 0.1 and 0.9 quantiles and the median 0.5 quantile of the overall particle size distribution versus volume curve.
In the case of CCC(=O)O[C@]1(C(=O)SCF)[C@H](C)C[C@H]2[C@@H]3C[C@H](F)C4=CC(=O)C=C[C@]4(C)[C@@]3(F)[C@@H](O)C[C@@]21C [Example 14, fluticasone propionate], the Particle size median is reported as “Particle size median: 2.14 microns;”. With CCC(=O)O[C@]1(C(=O)SCF)[C@H](C)C[C@H]2[C@@H]3C[C@H](F)C4=CC(=O)C=C[C@]4(C)[C@@]3(F)[C@@H](O)C[C@@]21C [Example 15, fluticasone propionate] the Particle size median was “Particle size median 2.67 microns;”. With CCC(=O)O[C@]1(C(=O)SCF)[C@H](C)C[C@H]2[C@@H]3C[C@H](F)C4=CC(=O)C=C[C@]4(C)[C@@]3(F)[C@@H](O)C[C@@]21C [Example 16, fluticasone propionate] the Particle size median was “Particle size median 4.10 microns;” and the “particle size of the powder” value was “less than 10 microns”. For CCC(=O)O[C@]1(C(=O)SCF)[C@H](C)C[C@H]2[C@@H]3C[C@H](F)C4=CC(=O)C=C[C@]4(C)[C@@]3(F)[C@@H](O)C[C@@]21C [Example 13, fluticasone propionate], the Particle size median was “Particle size median: 2.21 microns”.

Same assay, conditions: air-jet milled, data not shown
For CCC(=O)O[C@]1(C(=O)SCF)[C@H](C)C[C@H]2[C@@H]3C[C@H](F)C4=CC(=O)C=C[C@]4(C)[C@@]3(F)[C@@H](O)C[C@@]21C [Example 12, fluticasone propionate], the “particle size distribution in words” value was “either too many oversized particles or too many undersized particles; also recorded: unsatisfactory size distribution”.

Same assay, conditions: dynamic light scattering
In the case of CCC(=O)O[C@]1(C(=O)SCF)[C@H](C)C[C@H]2[C@@H]3C[C@H](F)C4=CC(=O)C=C[C@]4(C)[C@@]3(F)[C@@H](O)C[C@@]21C [Example 14, fluticasone propionate], the “particle size D(0.10)” value is reported as 0.96 micron, the “particle size D(0.20)” value is reported as 1.27 micron and the “particle size D(0.50)” value is reported as 2.14 microns. For the same molecule, the “particle size D(0.80)” value was 3.44 microns, the “particle size D(0.90)” value was 4.36 microns and the “particle size D(0.95)” value was 5.27 microns. For the same molecule, the “particle size D(0.98)” value was 6.44 microns, the “particle size D(0.99)” value was 7.32 microns and the “particle size D(1.00)” value was 13.54 microns. In the case of CCC(=O)O[C@]1(C(=O)SCF)[C@H](C)C[C@H]2[C@@H]3C[C@H](F)C4=CC(=O)C=C[C@]4(C)[C@@]3(F)[C@@H](O)C[C@@]21C [Example 15, fluticasone propionate], the “particle size D(0.10)” value is reported as 1.06 micron, the “particle size D(0.20)” value is reported as 1.52 micron and the “particle size D(0.50)” value is reported as 2.67 microns. For the same molecule, the “particle size D(0.80)” value was 4.51 microns, the “particle size D(0.90)” value was 5.95 microns and the “particle size D(0.95)” value was 7.51 microns. The “particle size D(0.98)” value was 9.81 microns and the “particle size D(0.99)” value was 11.67 microns. In the case of CCC(=O)O[C@]1(C(=O)SCF)[C@H](C)C[C@H]2[C@@H]3C[C@H](F)C4=CC(=O)C=C[C@]4(C)[C@@]3(F)[C@@H](O)C[C@@]21C [Example 16, fluticasone propionate], the “particle size D(0.10)” value is reported as 1.90 micron, the “particle size D(0.20)” value is reported as 2.46 micron and the “particle size D(0.50)” value is reported as 4.11 microns. The “particle size D(0.80)” value was 6.70 microns, the “particle size D(0.90)” value was 8.40 microns and the “particle size D(0.95)” value was 9.86 microns. For the same molecule, the “particle size D(0.98)” value was 11.35 microns, the “particle size D(0.99)” value was 12.10 microns and the “particle size D(1.00)” value was 14.24 microns. In the case of CCC(=O)O[C@]1(C(=O)SCF)[C@H](C)C[C@H]2[C@@H]3C[C@H](F)C4=CC(=O)C=C[C@]4(C)[C@@]3(F)[C@@H](O)C[C@@]21C [Example 13, fluticasone propionate], the “particle size D(0.10)” value is reported as 0.95 micron, the “particle size D(0.20)” value is reported as 1.31 micron and the “particle size D(0.50)” value is reported as 2.21 microns. The “particle size D(0.80)” value was 3.43 microns, the “particle size D(0.90)” value was 4.23 microns and the “particle size D(0.95)” value was 4.96 microns. For the same molecule, the “particle size D(0.98)” value was 5.82 microns, the “particle size D(0.99)” value was 6.37 microns and the “particle size D(1.00)” value was 8.11 microns.

Same assay, conditions: light scattering
For CCC(=O)O[C@]1(C(=O)SCF)[C@H](C)C[C@H]2[C@@H]3C[C@H](F)C4=CC(=O)C=C[C@]4(C)[C@@]3(F)[C@@H](O)C[C@@]21C [Example 14, fluticasone propionate], the “Particle size distribution D(v, 0.1), 0.1 quantile” value was 0.96 μ, the “Particle size distribution D(v, 0.5), 0.5 quantile” value was 2.14 μ and the “Particle size distribution D(v, 0.9), 0.9 quantile” value was 4.36 μ. For the same molecule, the “Particle size distribution D(v, 0.95), 0.95 quantile” value was 5.27 μ. In the case of CCC(=O)O[C@]1(C(=O)SCF)[C@H](C)C[C@H]2[C@@H]3C[C@H](F)C4=CC(=O)C=C[C@]4(C)[C@@]3(F)[C@@H](O)C[C@@]21C [Example 15, fluticasone propionate], the “Particle size distribution D(v, 0.1), 0.1 quantile” value is reported as 1.06 μ and the “Particle size distribution D(v, 0.5), 0.5 quantile” value is reported as 2.67 μ. With CCC(=O)O[C@]1(C(=O)SCF)[C@H](C)C[C@H]2[C@@H]3C[C@H](F)C4=CC(=O)C=C[C@]4(C)[C@@]3(F)[C@@H](O)C[C@@]21C [Example 16, fluticasone propionate] the “Particle size distribution D(v, 0.1), 0.1 quantile” value was 1.90 μ, the “Particle size distribution D(v, 0.5), 0.5 quantile” value was 4.11 μ and 4.10 μ and the “Particle size distribution D(v, 0.9), 0.9 quantile” value was 8.40 μ and 8.39 μ. The “Particle size distribution D(v, 0.95), 0.95 quantile” value was 9.86 μ. For CCC(=O)O[C@]1(C(=O)SCF)[C@H](C)C[C@H]2[C@@H]3C[C@H](F)C4=CC(=O)C=C[C@]4(C)[C@@]3(F)[C@@H](O)C[C@@]21C [Example 13, fluticasone propionate], the “Particle size distribution D(v, 0.1), 0.1 quantile” value was 0.95 μ, the “Particle size distribution D(v, 0.5), 0.5 quantile” value was 2.21 μ and the “Particle size distribution D(v, 0.9), 0.9 quantile” value was 4.23 μ. The “Particle size distribution D(v, 0.95), 0.95 quantile” value was 4.96 μ.
